This note sets out measurements from paper PMC12860560, “Chromosome-level genome assembly of Cornus officinalis reveals the evolution of loganin biosynthesis” (Horticulture Research, 2025).

For this experiment, the target named is T1, CrLAMT (Catharanthus roseus, UniProt B2KPR3).
T1 construct: gene LAMT; pBI121 vector, expressed in Nicotiana benthamiana
T1 sequence (B2KPR3 1-371): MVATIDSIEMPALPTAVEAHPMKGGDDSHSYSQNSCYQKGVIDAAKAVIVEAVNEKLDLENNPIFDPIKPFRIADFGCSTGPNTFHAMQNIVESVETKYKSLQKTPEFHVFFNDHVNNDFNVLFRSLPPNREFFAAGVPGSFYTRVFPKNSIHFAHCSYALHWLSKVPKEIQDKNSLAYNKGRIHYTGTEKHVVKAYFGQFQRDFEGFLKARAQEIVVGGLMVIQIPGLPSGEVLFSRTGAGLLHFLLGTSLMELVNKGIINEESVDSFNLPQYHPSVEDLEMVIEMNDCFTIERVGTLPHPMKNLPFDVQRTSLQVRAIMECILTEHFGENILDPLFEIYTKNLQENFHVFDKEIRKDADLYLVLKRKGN
As to the kind of experiment: HPLC of product loganin. It is filed as cell-based. The following applies: expressed in N. benthamiana; preparation of the HPLC assay not told.

With `C[C@@H]1[C@H]2[C@H](O[C@@H]3O[C@H](CO)[C@@H](O)[C@H](O)[C@H]3O)OC=C(C(=O)O)[C@H]2C[C@@H]1O` [loganic acid], the “HPLC of product loganin” value is “production of loganin by CaLAMT, CrLAMT, and CoLAMT using loganic acid as the substrate”.
